Data taken from publication PMC6100724, “Proteome‐wide analysis of phospho‐regulated PDZ domain interactions” (Molecular Systems Biology, 2018).
Square brackets hold non-standard residues; d marks the D form. Peptide text beside a SMILES is read from it. * marks the point of attachment. FITC = O=C1OC2(c3ccc(O)cc3Oc3cc(O)ccc32)c2ccc(NC(=S)*)cc21; pS = N[C@@H](COP(=O)(O)O)C(=O)O

Key:
Scribble PDZ3 = experiment: Phosphomimetic ProP-PD selection with NGS; assay type: binding, human; details: mean over selections 1-3; bait Scribble PDZ3
Outline: (§1)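 Phage display of a phosphomimetic C-terminal peptide library, four rounds against immobilised GST-tagged PDZ domains with GST pre-selection, binding 2 h at 8 °C. Phospho-library selections were run in HBS, pH 7.4. Round-three pools were analysed by NGS (Phred ≥30, ≤2 mismatches); binding was scored as the fraction of reads, not the absolute count.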

DLG1 PDZ1 = experiment: Phosphomimetic ProP-PD selection with NGS; assay type: binding, human; details: mean of selections 1-3, bait DLG1 PDZ1; for Mean fraction #NGS counts wt peptide / total counts selection: wild type peptide; for Mean fraction #NGS counts mimetic peptide / total count selection: phosphomimetic peptide
Outline: as §1

DLG1 PDZ3 = experiment: Phosphomimetic ProP-PD selection with NGS; assay type: binding, human; details: mean of selections 1-3; bait DLG1 PDZ3
Outline: as §1

Scribble PDZ2 = experiment: Phosphomimetic ProP-PD selection with NGS; assay type: binding, human; details: bait Scribble PDZ2; mean of selections 1 and 2 (selection 3 empty)
Outline: as §1

Scribble PDZ1 [1] = target: T1, Scribble PDZ1 (Homo sapiens, UniProt Q14160); experiment: Phosphomimetic ProP-PD selection with NGS; assay type: binding; details: bait Scribble PDZ1; mean of selections 1-3
T1 construct: human Scribble PDZ1 aa 719–829 in; made in house; host or cells: E. coli BL21 Gold (DE3)
T1 sequence (Q14160 719-829): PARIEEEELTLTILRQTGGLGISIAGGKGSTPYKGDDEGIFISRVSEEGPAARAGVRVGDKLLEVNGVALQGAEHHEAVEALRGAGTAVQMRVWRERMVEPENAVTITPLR
Outline: as §1

DLG1 PDZ2 [2] = target: T2, DLG1 PDZ2 (Homo sapiens, UniProt Q12959); experiment: Phosphomimetic ProP-PD selection with NGS; assay type: binding; details: mean of selections 1-3, bait DLG1 PDZ2
T2 construct: human DLG1 PDZ2 aa 311–407 in a modified pRSET vector 40; made in house; host or cells: E. coli BL21 Gold (DE3)
T2 sequence (Q12959 311-407): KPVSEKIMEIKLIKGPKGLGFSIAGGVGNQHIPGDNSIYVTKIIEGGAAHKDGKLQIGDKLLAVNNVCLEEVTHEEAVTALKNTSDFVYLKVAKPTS
Outline: as §1

DLG1 PDZ2 [3] = target: T2, DLG1 PDZ2; experiment: MST affinity measurement, FITC-labeled peptides vs DLG1 PDZ2; assay type: binding; details: FITC-labeled peptide fixed at 25–50 nM, titrated with DLG1 PDZ2 (aa 311–407), 50 mM Tris–HCl pH 7.4, 0.1% Tween‐20, thermophoresis and T Jump signal, mean ± SD, n = 3, read-out: KD values, DLG1 PDZ2 (table row head: DLG PDZ1), MST
Text: (§2) Glutathione transferase (GST)‐tagged PDZ domains and GST for phage display selections were expressed and purified as described previously (Tonikian et al, 2008; Ivarsson et al, 2014). Protein expression for MST, ITC, and NMR experiments was as follows: Plasmids encoding His‐tagged proteins (human Scribble PDZ1 aa 719–829 in pETM‐11, human DLG1 PDZ2 aa 311–407 in a modified pRSET vector 40, or human Shank1 PDZ aa 652–761 in pETM‐33) were transformed into E. coli BL21 Gold (DE3; Agilent), and the proteins were expressed in 2YT media supplemented with appropriate antibiotic (70 or 100 μg/ml carbenicillin). Protein expression was induced upon reaching an OD600 of 0.8 by adding 1 mM isopropyl β‐D‐1‐thiogalactopyranoside (IPTG) final concentration and allowed for 4 h at 30°C.
(§3) Scribble PDZ1 for NMR experiments was expressed in M9 salt enriched with 13C D‐glucose and 15N ammonium chloride. Bacteria were harvested by centrifugation at 10,000 × g for 20 min at 4°C. The pellets were resuspended in PBS supplemented with 5 mM CaCl2, 10 μg/ml DNaseI, and 1 mg/ml lysozyme and protease inhibitor (cOmplete Mini EDTA‐free; Sigma‐Aldrich) and incubated for 1 h at 4°C. The lysates were subjected to sonication in 1‐ to 3‐s pulses for 20 pulses. The lysate was cleared by centrifugation at 20,000 × g for 1 h. […]

Scribble PDZ1 [4] = target: T1, Scribble PDZ1; experiment: ITC titration, wild-type Scribble PDZ1; assay type: binding; details: unlabeled 9-mer peptides, 20 mM HEPES pH 7.4, 25°C, 50–100 μM protein in cell, 0.64–3 mM peptide in syringe, single-site fit, mean ± SD
Text: as §2
as §3, with “pulses.” for “pulses. The lysate was cleared by centrifugation at 20,000 × g for 1 h.”
Peptides and proteins were dialyzed in the same beaker in 20 mM HEPES, pH 7.4. […] The results were analyzed using Origin 7 (OriginLab Corporation). […]

Molecule	Mean fraction #NGS counts wt peptide / total counts selection (Scribble PDZ1 [1])	Mean fraction #NGS counts mimetic peptide / total count selection (DLG1 PDZ2 [2])	Mean fraction #NGS counts mimetic peptide / total count selection (Scribble PDZ1 [1])	Mean fraction #NGS counts wt peptide / total counts selection (Scribble PDZ3)	Mean fraction #NGS counts wt peptide / total counts selection (DLG1 PDZ1)	Mean fraction #NGS counts wt peptide / total counts selection (DLG1 PDZ3)	Mean fraction #NGS counts mimetic peptide / total count selection (Scribble PDZ3)	Mean fraction #NGS counts mimetic peptide / total count selection (DLG1 PDZ1)	Mean fraction #NGS counts mimetic peptide / total count selection (DLG1 PDZ3)	also measured
LPKIKETTV	0.0005451			0.004275	0.004479	0.008422				Mean fraction #NGS counts wt peptide / total counts selection (DLG1 PDZ2 [2]): 0.04339
CC[C@H](C)[C@H](NC(=O)[C@H](Cc1ccccc1)NC(=O)[C@H](CO)NC(=O)[C@H](CCCNC(=N)N)NC(=O)[C@H](CCCCN)NC(=S)Nc1ccc2c(c1)C(=O)OC21c2ccc(O)cc2Oc2cc(O)ccc21)C(=O)N[C@@H](CCC(=O)O)C(=O)N[C@@H](CO)C(=O)N[C@@H](CC(N)=O)C(=O)N[C@H](C(=O)O)C(C)C [TANC1] ({FITC}-KRSFIESNV-OH)										Kd (DLG1 PDZ2 [3]): 2.7 ± 0.1 µM
CC[C@H](C)[C@H](NC(=O)[C@H](Cc1ccccc1)NC(=O)[C@H](COP(=O)(O)O)NC(=O)[C@H](CCCNC(=N)N)NC(=O)[C@H](CCCCN)NC(=S)Nc1ccc2c(c1)C(=O)OC21c2ccc(O)cc2Oc2cc(O)ccc21)C(=O)N[C@@H](CCC(=O)O)C(=O)N[C@@H](CO)C(=O)N[C@@H](CC(N)=O)C(=O)N[C@H](C(=O)O)C(C)C [pTANC1, FITC‐KRpSFIESNV] ({FITC}-KR[pS]FIESNV-OH)										Kd (DLG1 PDZ2 [3]): 6.1 ± 0.7 µM
VWLRKEERV		3.584e-5	0				0	0	9.275e-5	Mean fraction #NGS counts mimetic peptide / total count selection (Scribble PDZ2): 0
VWLRKETRV	0.0001002			0.009414	0.4163	0.8949				Mean fraction #NGS counts wt peptide / total counts selection (Scribble PDZ2): 0.008925; Mean fraction #NGS counts wt peptide / total counts selection (DLG1 PDZ2 [2]): 0.5055
LPKIKEETV		0	0				0	3.0718e-6	0	
ARVSKEpTPL [pMAPK12, p‐2 phosphorylated MAPK12 peptide]										KD values, Scribble PDZ1, ITC (Scribble PDZ1 [4]; n = 3): no binding; KD values, Scribble PDZ1, ITC (Scribble PDZ1 [4]; n = 3, listed as phosphorylated MAPK12): no interaction was observed

The next lines start with results.

Mean fraction #NGS counts wt peptide / total counts selection (Scribble PDZ1 [1])	Mean fraction #NGS counts mimetic peptide / total count selection (DLG1 PDZ2 [2])	Mean fraction #NGS counts mimetic peptide / total count selection (Scribble PDZ1 [1])	Molecule	Mean fraction #NGS counts wt peptide / total counts selection (Scribble PDZ3)	Mean fraction #NGS counts wt peptide / total counts selection (DLG1 PDZ1)	Mean fraction #NGS counts wt peptide / total counts selection (DLG1 PDZ3)	Mean fraction #NGS counts mimetic peptide / total count selection (Scribble PDZ3)	Mean fraction #NGS counts mimetic peptide / total count selection (DLG1 PDZ1)	Mean fraction #NGS counts mimetic peptide / total count selection (DLG1 PDZ3)	also measured
4.38e-5	0		HSIKQSTAV	5.205e-5	0.0004538	0				Mean fraction #NGS counts wt peptide / total counts selection (Scribble PDZ2): 0.0003798; Mean fraction #NGS counts wt peptide / total counts selection (DLG1 PDZ2 [2]; wild type peptide): 5.408e-5
	0.01768	6.299e-5	HSIKQETAV				0.0001468	0.0009534	0.0006363	Mean fraction #NGS counts mimetic peptide / total count selection (Scribble PDZ2): 0.001519
